According to US9663480B2, “BIS-MMF derivatives” (RATIOPHARM GMBH, priority 2013, dated 2017):

Test: Kinetics of MMF-release during incubation in intestinal fluid from the minipig (LC-MS quantification of MMF)
Format: in vitro ADME, Gottingen SPF minipig
Details: diluted small intestinal fluid (1/20 v/v with 50 mM KH2PO4, pH 6.8), 37° C., samples at 0-120 min; FIG. 1; DMF as reference
Method: Investigation and Comparision of the Kinetics of MMF-Release of the Different Compounds of the Present Invention and DMF During Incubation in Intestinal Fluid from the Minipig
Intestinal fluid samples were prepared at CiToxLAB Scantox A/S. The samples were taken from 1 female Gottingen SPF minipig from CiToxLAB Scantox A/S standard stock, originally obtained from Ellegaard Gottingen Minipigs A/S, DK-4261 Dalmose, Denmark. The minipig was 10 months old and the body weight was 21 kg. The minipig was identified by an individual number tagged to the pinna of one ear (animal number is documented in the raw data).
The minipig was fasted for approximately 28 hours before sampling of intestinal fluid. […]
Incubations were continued and in case the result of analysis of the 120 min indicated the presence of remaining intact MMF prodrug, additional samples were taken (t=360 or 420 min and at 1,260 or 1,320 min) and analysed.
The concentration/peak area ratio data pairs were subjected to regression analysis with 1/x weighting and the resulting calibration equation was used to quantify the MMF content in incubation samples.

In the case of `COC(=O)/C=C/C(=O)OCCN1CCN(CCOC(=O)/C=C/C(=O)OC)CC1` [Example 1, (E)-But-2-enedioic acid-2-{4-[2-((E)-3-methoxycarbonyl-acryloyloxy)-ethyl]-piperazin-1-yl}-ethyl ester methyl ester], the “hydrolysis to MMF (MMF release) compared with DMF” value is reported as “substantially the same hydrolysis to MMF than DMF”.
